Laboratory results taken from patent US20100183669A1, “Mannose immunogens for HIV-1” (University of Oxford, priority 2005, published 2010).

How the values were obtained:
[1] = test system: ER- and Golgi-resident class I α-mannosidases; conditions: relative to DMJ; cited from earlier work
[2] = test system: 2G12; test: 2G12 binding ELISA of self glycoproteins CD48 and RPTPmu expressed in HEK293T cells with kifunensine; conditions: glycoproteins expressed in HEK293T cells with 5 μM kifunensine, FIG. 4
Protocol: The aim of this study is to generate ‘self’ glycoproteins bearing oligomannose glycans which bind a 2G12 antibody and consequently display antigenic cross-reactivity with the HIV gp120. Two target glycoproteins, CD48 and Receptor Protein Tyrosine Phosphates mu (RPTPmu) were expressed in HEK293T cells in the presence of the mannosidase inhibitor kifunensine at 5 μM concentration. To verify that the mannosidase inhibitor was effective in producing glycoprotein containing oligomannose glycans, the glycans were released by digestion with protein N-glycanase F (PNGase F) and were then analysed by high-performance liquid chromatography (HPLC) and matrix assisted laser desorption/ionisation mass spectrometry (MALDI-MS).
The resulting glycoproteins containing oligomannose-type N-linked glycans were tested for 2G12 binding by ELISA (FIG. 4). Particularly, 15.6 μg of CD48, 2 μg, 1 μg and 0.4 μg of RPTPmu were plated and 1 μg of non-kifunensine treated IgG was plated as a negative control.

[3] = test system: monoclonal antibody 2G12; test: 2G12 sandwich ELISA of gp120 from CHO cells grown with or without kifunensine; format: binding; conditions: for binding to the monoclonal antibody 2G12 in ELISA: gp120 produced in CHO cells in the presence of kifunensine, compared with absence
Protocol: To investigate the role of mannosidase inhibition, by kifunensine, on the formation of the 2G12 epitope, Chinese Hamster Ovary (CHO) cells, transfected with EE6HCMV gp120GS, secreting recombinant HIV-IIIB gp120, were cultured in CB2 DMEM Base culture medium supplemented with foetal calf serum (10%), penicillin (50 U/ml) and streptomycin (50 ^1g/ml). All reagents were obtained from Gibco Ltd, Uxbridge, UK. High expression of gp120 was maintained by the addition of methionine sulphoximine (200 nM). Cells were grown in the presence and absence kifunensine (see FIG. 1A, 1B).
Glycoproteins were immobilized on plastic protein-binding plates. For the first experiment (FIG. 1A) 2G12 (5 ug/ml) was coated onto plate, left overnight at 4° C. Plates were then blocked with Bovine Serum albumin (3% w/v) for one hour. Subsequently, supernatant from gp120IIIB expressing CHO cells (with or without kifunensine) was added for one hour, at room temperature. Plates were then washed 3 times in PBS. 2G12 (titration from 10 yg/ml) was then added. After washing 2g12 binding was determined by phosphatase-conjugated anti-IgG secondary antibody, a final wash step and then phosphatase substrate measurement (p-nitrophenylphosphate, absorbance at 405 nm).
(§1) BSA (x) was used in these experiments as a negative control.

[4] = test system: 2G12; test: Double antibody (b12/2G12) ELISA of gp120 captured with anti-gp120 antibody D7324; format: binding; conditions: gp120 produced with 5 μM kifunensine compared with double antibody ELISA of untreated gp120, FIG. 1 panel B
Excerpt: Binding of gp120, and measurement of b12/2G12 was again determined by phosphatase-conjugated anti-IgG secondary antibody.
as §1

Molecule: O=C1N[C@@H]2[C@@H](O)[C@@H](O)[C@H](O)[C@@H](CO)N2C1=O [kifunensine]
- concentration to effect mannosidase inhibition, lower than DMJ [1]: 1000 fold

Molecule: CD48: self glycoprotein expressed in HEK293T cells in the presence of 5 μM kifunensine, bearing oligomannose glycans
- 2G12 binding by ELISA [2]: can bind to 2G12

Molecule: RPTPmu: self glycoprotein expressed in HEK293T cells in the presence of 5 μM kifunensine, bearing oligomannose glycans
- 2G12 binding by ELISA [2]: can bind to 2G12

Molecule: kifunensine treated gp120: HIV-1IIIB gp120 glycoprotein produced in a CHO stable cell line in the presence of kifunensine
- number of 2G12 molecules able to bind to a single gp120 molecule ([3]; gp120 expressed in the presence of kifunensine): at least two
- binding to the monoclonal antibody 2G12 in ELISA ([3]; expressed in the presence of kifunensine): dramatically enhanced
- binding to the monoclonal antibody 2G12 in ELISA ([3]; produced in the presence of kifunensine): higher binding
- additional 2G12 binding sites on each molecule of gp120 ([3]; gp120 produced in the presence of kifunensine, two 2G12 ELISA binding assays): at least one additional 2G12 binding site
- proportion of gp120 molecules able to simultaneously bind two or more 2G12 antibody molecules ([3]; sandwich ELISA, 0-5 μM kifunensine, FIG. 1 panel A): a higher proportion
- distinct epitopes for 2G12 [4]: two distinct epitopes
